Data on 14 compounds can be found in US11957680B2, “Pyruvate kinase activators for use in treating blood disorders” (Agios Pharmaceuticals, Inc., priority 2017, dated 2024).

As usually defined, the AC50 is the midpoint of the concentration-response curve, whichever way the signal moves.

The target of experiment [1] is PKR R510Q (Homo sapiens, UniProt P30613, R510Q). As to the kind of experiment: PKR mutant assay (R510Q), AC50, LDH/NADH-coupled, absorbance at 340 nm. As to conditions: for AC50: Table 2, enzyme assay, read-out: PK R510Q AC50; for EC50: Table 4, AC50, enzyme assay, read-out: PK R510Q. Format: biochemical. The protocol: (§1) Example 11. PKR Mutant Assay
(§2) PKR or PKR mutant enzyme solution was diluted into a reaction mix, which contains 1× buffer (100 mM KCl, 50 mM Tris pH 7.5, 5 mM MgCl2) as well as PEP (conc depends on enzyme), 180 μM NADH, 0.5 units LDH, 1 mM DTT, 0.03% BSA; final assay concentrations after 1.11 fold dilution are indicated.
(§3) 2 μL of test compound was added into wells first, and then 180 μL reaction mix was added.
(§4) Reactions mixture with test compound was assembled except for ADP, and plates were stored for 60 minutes at room temperature.
(§5) 20 uL ADP was added to start reaction at room temperature and reaction progress was measured as changes in absorbance at 340 nm wavelength at room temperature.
(§6) Test Compound Preparation:
(§7) Test compound stock was made at 100× concentration in 100% DMSO (10 mM)
(§8) 1 to 3 dilutions were made for 11 points (i.e. 50 μl of first concentration added to 100 μl 100% DMSO to yield 3.33 mM, 50 μl of this added to 100 μl DMSO to yield 1.11 mM, and so forth) • 1 to 100 dilution into assay (2 μl in 200 μl) yielded starting concentration of 100 μM, decreasing 3 fold for 11 points.
(§9) Assay Buffer: 100 mM KCl, 50 mM Tris 7.5, 5 mM MgCl2, 1 mM DTT, 0.03% BSA
(§10) Reaction Mixture: PKR mutant enzyme: 40-400 ng/well; ADP: 0.2-1.65 mM; PEP: 0.1-0.5 mM; NADH: 180 μM; LDH: 0.5 units (Sigma #59023); DTT: 1 mM; BSA: 0.03%.

For experiment [2], the target named is PKR K410E (Homo sapiens, UniProt P30613, K410E). As to the kind of experiment: PKR mutant assay (K410E), AC50, LDH/NADH-coupled, absorbance at 340 nm. The experiment is classed as biochemical. The conditions noted are these: for AC50: Table 2, enzyme assay; for EC50: Table 4, AC50, enzyme assay. The protocol: as §1, §2, §3, §4, §5, §6, §7, §8, §9, §10

The target of experiment [3] is T1, wild type PKR (Homo sapiens, UniProt P30613). As to the kind of experiment: Cell based ATP assay in purified red blood cells (Cell-Titer-Glo). Also noted: endogenous in cells; host or cells: purified red blood cells from healthy volunteers. As to conditions: overnight at 37° C., ATP levels. As for the experimental part:
Example 16. Red Blood Cell (RBC) Purification
Fresh blood drawn from healthy volunteers into K2EDTA tubes was collected. Whole blood was pelleted by spinning at 500 g for 10 minutes. Cut transfusion bag port off of Purecell leukocyte reduction neofilter (Fisher NC0267633) one (1) inch above filter. Attach a 10 ml syringe barrel to the remaining cut tubing attached to neofilter. The plasma layer was removed from the pellet of the whole blood and the pellet was resuspended in 2× volume of phosphate buffered saline (PBS). Transfer 9 ml re-suspended blood cell pellet to prepared 10 ml syringe that is attached to the neofilter. Allow whole blood to gravity flow through filter until all fluid runs through upper tubing into filter disc. Add plunger to the syringe, remove syringe from clamp and invert the filter, then plunge air through the syringe filter system. Using a new 5 ml syringe, remove filtered RBCs from the bag by the syringe port and transfer purified RBCs to a 5 ml snap cap tube that has been incubated on ice. Spin 5 ml snap cap tube at 500 g for 10 minutes at 15 C, aspirate supernatant and resuspend in AGAM (1×PBS, 1% glucose, 170 mg/L adenine, 5.25 g/L mannitol) at a density of 4×10^9 cells/mL.
Example 17. Cell Based ATP Assay
For cell based ATP assays, the compound as described herein was prepared in 100% DMSO as a 10 mM stock. Serial dilutions (1:4) were performed in 96-well V-bottom storage plate and then added 1:100 to 96-well V-bottom plates containing AGAM. RBCs were diluted in AGAM media to a density of 1×10^7 cells/mL before added 90 μL/well to black clear bottom assay plates (final compound concentration at 0.1% DMSO concentration). Assay plates were sealed using aluminum foil seals and incubated overnight at 37° C. in a humidified chamber. ATP levels were read out using Cell-Titer-Glo (Promega).

Experiment [4] deals with T1, wild type PKR. Nature of the experiment: PKR (wild type) enzyme AC50 assay, LDH/NADH-coupled, absorbance at 340 nm. Format: biochemical. The conditions noted are these: for AC50: Table 2, enzyme assay, read-out: PKR WT AC50; for EC50: Table 4, AC50, enzyme assay, read-out: PKR WT. The protocol: as §1, §2, §3, §4, §5, §6, §7, §8, §9, §10

Sequence of PKR K410E (P30613 whole entry K410E): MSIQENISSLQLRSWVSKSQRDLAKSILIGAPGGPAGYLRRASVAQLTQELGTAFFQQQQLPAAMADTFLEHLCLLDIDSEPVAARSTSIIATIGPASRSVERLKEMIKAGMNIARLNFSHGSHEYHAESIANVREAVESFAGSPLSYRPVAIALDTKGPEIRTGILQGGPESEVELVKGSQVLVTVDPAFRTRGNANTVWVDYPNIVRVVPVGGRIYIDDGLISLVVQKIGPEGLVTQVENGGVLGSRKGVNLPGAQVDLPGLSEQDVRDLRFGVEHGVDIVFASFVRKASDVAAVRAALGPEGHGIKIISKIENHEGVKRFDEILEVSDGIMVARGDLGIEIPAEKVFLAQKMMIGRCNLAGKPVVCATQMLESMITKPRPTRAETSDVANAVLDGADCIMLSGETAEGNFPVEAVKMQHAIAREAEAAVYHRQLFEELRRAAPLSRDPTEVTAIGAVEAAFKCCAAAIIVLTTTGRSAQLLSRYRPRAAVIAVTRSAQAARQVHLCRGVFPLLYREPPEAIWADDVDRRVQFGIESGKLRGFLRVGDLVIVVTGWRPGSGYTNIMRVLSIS
Sequence of PKR R510Q (P30613 whole entry R510Q): as the sequence (P30613 whole entry K410E) above, with E410K, R510Q counted along it
T1 sequence (P30613 whole entry): as the sequence (P30613 whole entry K410E) above, with E410K counted along it

Turning to `Cn1c2nc(C(C)(O)c3ccccc3)sc2c2cnn(Cc3cccc4[nH]ncc34)c(=O)c21` (centres unmarked) [Compound 126], the AC50 is < 300 nM in experiment [1]; < 300 nM in experiment [2]; ≤ 1000 nM in experiment [3] (Table 2, RBCs); < 300 nM in experiment [4].

As for `COC(=O)C(C(=O)OC)c1nc2c(s1)c1cnn(Cc3cccc4[nH]ncc34)c(=O)c1n2C` [Compound 113], the AC50 in experiment [1] is > 800 nM; in experiment [2], > 800 nM; in experiment [3] (Table 2, RBCs), > 1000 nM; in experiment [4] it was > 800 nM.

Turning to `Cn1c2nc(Cc3cc[nH]n3)sc2c2cnn(Cc3cccc(C(N)=O)c3)c(=O)c21` [Compound 183], the AC50 in experiment [1] was < 300 nM; in experiment [2] it was < 300 nM; in experiment [3] (Table 2, RBCs), ≤ 1000 nM; in experiment [4], < 300 nM.

Take `C=CCn1ncc2c3sc(Cc4ccccn4)nc3n(C)c2c1=O` [Compound 398]: the EC50 in experiment [1], in experiment [2] and in experiment [4] was > 800 nM each time. Besides, the “Cell based ATP assay” value in experiment [3] (Table 4, AC50, RBCs) is on record as “No Fit”.

In the case of `Cc1nc2c(s1)c1cnn(Cc3cccc(C(=O)O)c3)c(=O)c1n2C` [Compound 11], the AC50 in experiment [1], in experiment [2] and in experiment [4] was > 800 nM in each case. Besides, the “Cell based ATP assay AC50” value in experiment [3] (Table 2, RBCs) is “No Fit”.

For `C=Cc1nc2c(s1)c1cnn(Cc3cccc(OC)c3)c(=O)c1n2C` [Compound 37], the AC50 in experiment [1] is < 300 nM; in experiment [2], > 800 nM; in experiment [3] (Table 2, RBCs), > 1000 nM; in experiment [4] it was 301 to 800 nM.

Take `Cn1c2nc(CCc3cc[nH]n3)sc2c2cnn(Cc3cccc(N)n3)c(=O)c21` [Compound 394]: the EC50 is < 300 nM in experiment [1]; < 300 nM in experiment [2]; ≤ 1000 nM in experiment [3] (Table 4, AC50, RBCs); < 300 nM in experiment [4].

Turning to `COc1cccc(Cn2ncc3c4sc(Cl)nc4n(C)c3c2=O)c1` [Compound 30], the AC50 was < 300 nM in experiment [1]; 301 to 800 nM in experiment [2]; > 1000 nM in experiment [3] (Table 2, RBCs); < 300 nM in experiment [4].

Take `Cn1ccc(Cn2ncc3c4sc(Cc5cccc6cn[nH]c56)nc4n(C)c3c2=O)n1` [Compound 258]: the EC50 in experiment [1] is < 300 nM; in experiment [2], < 300 nM; in experiment [3] (Table 4, AC50, RBCs) it was ≤ 1000 nM; in experiment [4], < 300 nM.

Consider `Cn1c2nc(Cc3cc[nH]n3)sc2c2cnn(Cc3ccc4c(n3)NC(=O)C4)c(=O)c21` [Compound 387], for which the EC50 was < 300 nM in experiment [1]; < 300 nM in experiment [2]; > 1000 nM in experiment [3] (Table 4, AC50, RBCs); 301 to 800 nM in experiment [4].

`Cn1c2nc(Cc3cc[nH]n3)sc2c2cnn(Cc3cccc(O)c3)c(=O)c21` [Compound 369]: the EC50 in experiment [1] is < 300 nM; in experiment [2], < 300 nM; in experiment [3] (Table 4, AC50, RBCs), ≤ 1000 nM; in experiment [4] it was < 300 nM.

With `Cn1c2nc(Cc3n[nH]cc3F)sc2c2cnn(Cc3cccc4[nH]ncc34)c(=O)c21` [Compound 236], the EC50 in experiment [1] is < 300 nM; in experiment [2], < 300 nM; in experiment [3] (Table 4, AC50, RBCs), ≤ 1000 nM; in experiment [4] it was < 300 nM.

For the compound `Cn1c2nc(Cc3ccns3)sc2c2cnn(Cc3cccc4[nH]ncc34)c(=O)c21` [Compound 209], the EC50 in experiment [1] is > 800 nM; in experiment [2] it was > 800 nM; in experiment [3] (Table 4, AC50, RBCs), ≤ 1000 nM; in experiment [4] it was > 800 nM.

`COC(=O)C(c1ccccc1)c1nc2c(s1)c1cnn(Cc3cccc4[nH]ncc34)c(=O)c1n2C` (centres unmarked) [Compound 134]: the AC50 in experiment [1] was 301 to 800 nM; in experiment [2], < 300 nM; in experiment [3] (Table 2, RBCs), > 1000 nM; in experiment [4], > 800 nM.
